Laboratory results taken from the supplement of paper PMC10307832.

Key:
Experiment in all cases: relative viability (nuclei count vs DMSO), 5 days (fraction); higher = more cells survive
[1] = tested on: ChaGo-K-1
Outline: (§1)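 For relative viability, nuclei counts in treated wells were divided by those in vehicle wells. Lung cancer cell lines had been pin-tool dosed in 1536-well plates the day after seeding and cultured for 5 days, then fixed and stained in one step (final 0.05% Triton X-100, 1% formaldehyde, 1 ug/ml Hoechst) and imaged at 4×. Doses were one drug alone or a fixed anchor-drug dose plus five library-drug doses (not always all listed) in √10 steps, and values are duplicate-plate medians.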

[2] = tested on: EKVX
Outline: as §1

[3] = tested on: EMC-BAC-2
Outline: as §1

[4] = tested on: H3255
Outline: as §1

[5] = tested on: HARA
Outline: as §1

[6] = tested on: HCC-15
Outline: as §1

[7] = tested on: HCC-827
Outline: as §1

[8] = tested on: LC-2-ad
Outline: as §1

[9] = tested on: LCLC-97TM1
Outline: as §1

[10] = tested on: LU99A
Outline: as §1

[11] = tested on: NCI-H1437
Outline: as §1

[12] = tested on: NCI-H1792
Outline: as §1

[13] = tested on: NCI-H1793
Outline: as §1

[14] = tested on: NCI-H1915
Outline: as §1

[15] = tested on: NCI-H1944
Outline: as §1

[16] = tested on: NCI-H2126
Outline: as §1

[17] = tested on: NCI-H23
Outline: as §1

[18] = tested on: NCI-H322M
Outline: as §1

[19] = tested on: NCI-H441
Outline: as §1

[20] = tested on: NCI-H460
Outline: as §1

[21] = tested on: NCI-H661
Outline: as §1

[22] = tested on: PC-3 [JPC-3]
Outline: as §1

[23] = tested on: SK-LU-1
Outline: as §1

Cc1cnc(-c2cnc(NCCNc3ccc(C#N)cn3)nc2-c2ccc(Cl)cc2Cl)[nH]1 + N=C(N)NC(=N)NCCc1ccccc1 [Phenformin] (partner 250 µM) showed a relative viability ([1]; first compound 0.08 µM) of 0.493, a relative viability ([1]; first compound 0.253 µM) of 0.375 and a relative viability ([1]; first compound 0.8 µM) of 0.44. It also gave a relative viability ([1]; first compound 2.53 µM) of 0.413, a relative viability ([2]; first compound 0.08 µM) of 0.192 and a relative viability ([2]; first compound 0.253 µM) of 0.226. For the same compound, the relative viability ([2]; first compound 0.8 µM) was 0.196, the relative viability ([2]; first compound 2.53 µM) was 0.222 and the relative viability ([3]; first compound 0.08 µM) was 0.578. For the same compound, the relative viability ([3]; first compound 0.253 µM) was 0.507, the relative viability ([3]; first compound 0.8 µM) was 0.542 and the relative viability ([3]; first compound 2.53 µM) was 0.467. For the same compound, the relative viability ([4]; first compound 0.08 µM) was 0.409, the relative viability ([4]; first compound 0.253 µM) was 0.342 and the relative viability ([4]; first compound 0.8 µM) was 0.317. The relative viability ([4]; first compound 2.53 µM) was 0.349, the relative viability ([5]; first compound 0.08 µM) was 0.451 and the relative viability ([5]; first compound 0.253 µM) was 0.413. The relative viability ([5]; first compound 0.8 µM) was 0.477, the relative viability ([5]; first compound 2.53 µM) was 0.412 and the relative viability ([6]; first compound 0.08 µM) was 0.462. The relative viability ([6]; first compound 0.253 µM) was 0.415, the relative viability ([6]; first compound 0.8 µM) was 0.471 and the relative viability ([6]; first compound 2.53 µM) was 0.412. For the same compound, the relative viability ([7]; first compound 0.08 µM) was 0.384, the relative viability ([7]; first compound 0.8 µM) was 0.362 and the relative viability ([7]; first compound 2.53 µM) was 0.337. It also gave a relative viability ([8]; first compound 0.08 µM) of 0.591, a relative viability ([8]; first compound 0.253 µM) of 0.515 and a relative viability ([8]; first compound 2.53 µM) of 0.487. It also gave a relative viability ([9]; first compound 0.08 µM) of 0.481, a relative viability ([9]; first compound 0.8 µM) of 0.535 and a relative viability ([9]; first compound 2.53 µM) of 0.462. The relative viability ([10]; first compound 0.08 µM) was 0.972, the relative viability ([10]; first compound 0.253 µM) was 0.769 and the relative viability ([10]; first compound 0.8 µM) was 0.962. For the same compound, the relative viability ([10]; first compound 2.53 µM) was 0.752, the relative viability ([11]; first compound 0.08 µM) was 0.304 and the relative viability ([11]; first compound 0.253 µM) was 0.357. It also gave a relative viability ([11]; first compound 0.8 µM) of 0.297, a relative viability ([11]; first compound 2.53 µM) of 0.295 and a relative viability ([12]; first compound 0.08 µM) of 0.464. It also gave a relative viability ([12]; first compound 0.8 µM) of 0.329, a relative viability ([12]; first compound 2.53 µM) of 0.391 and a relative viability ([13]; first compound 0.08 µM) of 0.397. For the same compound, the relative viability ([13]; first compound 0.253 µM) was 0.333, the relative viability ([13]; first compound 0.8 µM) was 0.355 and the relative viability ([13]; first compound 2.53 µM) was 0.375. It also gave a relative viability ([14]; first compound 0.08 µM) of 0.378, a relative viability ([14]; first compound 0.253 µM) of 0.346 and a relative viability ([14]; first compound 0.8 µM) of 0.356. For the same compound, the relative viability ([14]; first compound 2.53 µM) was 0.389, the relative viability ([15]; first compound 0.08 µM) was 0.203 and the relative viability ([15]; first compound 0.8 µM) was 0.221. The relative viability ([15]; first compound 2.53 µM) was 0.195, the relative viability ([16]; first compound 0.08 µM) was 0.526 and the relative viability ([16]; first compound 0.253 µM) was 0.533. The relative viability ([16]; first compound 0.8 µM) was 0.506, the relative viability ([16]; first compound 2.53 µM) was 0.567 and the relative viability ([17]; first compound 0.08 µM) was 0.836. The relative viability ([17]; first compound 0.253 µM) was 0.69, the relative viability ([17]; first compound 0.8 µM) was 0.742 and the relative viability ([17]; first compound 2.53 µM) was 0.782. It also gave a relative viability ([18]; first compound 0.08 µM) of 0.815, a relative viability ([18]; first compound 0.253 µM) of 0.725 and a relative viability ([18]; first compound 0.8 µM) of 0.753. The relative viability ([18]; first compound 2.53 µM) was 0.931, the relative viability ([19]; first compound 0.08 µM) was 0.841 and the relative viability ([19]; first compound 0.253 µM) was 0.756. It also gave a relative viability ([19]; first compound 0.8 µM) of 0.714, a relative viability ([19]; first compound 2.53 µM) of 0.864 and a relative viability ([20]; first compound 0.08 µM) of 0.551. The relative viability ([20]; first compound 0.253 µM) was 0.452, the relative viability ([20]; first compound 0.8 µM) was 0.513 and the relative viability ([20]; first compound 2.53 µM) was 0.41. It also gave a relative viability ([21]; first compound 0.08 µM) of 0.298, a relative viability ([21]; first compound 0.253 µM) of 0.295 and a relative viability ([21]; first compound 0.8 µM) of 0.287. It also gave a relative viability ([21]; first compound 2.53 µM) of 0.314, a relative viability ([22]; first compound 0.08 µM) of 0.478 and a relative viability ([22]; first compound 0.253 µM) of 0.474. For the same compound, the relative viability ([22]; first compound 0.8 µM) was 0.508, the relative viability ([22]; first compound 2.53 µM) was 0.473 and the relative viability ([23]; first compound 0.08 µM) was 0.649. It also gave a relative viability ([23]; first compound 0.253 µM) of 0.533, a relative viability ([23]; first compound 0.8 µM) of 0.576 and a relative viability ([23]; first compound 2.53 µM) of 0.557.
